According to PubChem BioAssay AID1963868 (Molecular Pharmacology Branch, DTP, NCI, 2024):

Test system: KRAS PDC tumor spheroids (HUVEC+MSC), viability
Experiment: Anticancer human tumor 254851-301-R-J1-PDC patient-derived colon carcinoma cell line growth inhibition [KRAS2]
Conditions: for IC50: curve of first compound; for viability, T/C: stronger effect = lower value
Text: Multicellular complex tumor spheroid response to RAS pathway inhibitors in combination with a targeted agents in patient-derived cell lines with oncogenic KRAS variants from multiple cancer types
A high-throughput screen of multi-cell type tumor spheroids was designed to identify active combinations of targeted small molecules and KRAS pathway inhibitors. Complex spheroids include a stromal component modeled by human endothelial cells (HUVEC) and fibroblasts modeled by human mesenchymal stem cells (MSCs). The concentration ranges selected for each drug and investigational agent were based upon clinically achievable concentrations if the clinical Cmax of the agent was known.
Compounds. The drugs and investigational agents: BI-3406 (NSC825286), BAY-293 (NSC824723), batoprotafib (TNO155; NSC825523), sotorasib (AMG 510; NSC818433), MRTX1257 (NSC819558), elimusertib (BAY 1895344; NSC800525), molibresib (GSK525762; NSC774829), temuterkib (LY3214996; NSC803410), venetoclax (NSC766270), alisertib (NSC759677), olaparib (NSC753686), talazoparib (NSC767125), erdafitinib (NSC781556), ipatasertib (NSC767898), cabozantinib (NSC761068), nintedanib (NSC756659), abemaciclib (NSC768073), docetaxel (NSC628503), trametinib (NSC758246), and sapanisertib (NSC764658) were obtained from the National Cancer Institute (NCI) Developmental Therapeutics Program Chemical Repository. The FDA-approved anticancer drug set is available from the Developmental Therapeutics Program. […] The stock solutions were prepared in dimethyl sulfoxide (DMSO, Sigma-Aldrich, St. Louis, MO, cat. D2650) at 800-fold the tested concentration and stored at -70 degrees C prior to their use. All drugs and investigational agents were tested over a range starting from a high concentration at or near the clinical Cmax and decreasing in half-log increments. If the clinical Cmax for an agent had not been determined, the highest concentration tested was 10 microM.
Cell Culture. All cells were maintained in an incubator at 37 degrees C and 5% CO2 with 95% humidity. The PDC lines were cultured according to standard operating procedures established by the NCI PDMR (https://pdmr.cancer.gov/sops/default.htm). Briefly, all PDCs were thawed and cultured in Matrigel-coated flasks prepared with a working solution of 1X Ham's F-12 nutrient mix, without supplementation (Invitrogen, Waltham, MA, cat. 11765054), 100 U/mL penicillin-streptomycin (Invitrogen, cat. 15140122), and 2.5% Matrigel (Corning Inc., Corning, NY, cat. 354248) for the first three passages. All PDCs were cultured in complete DMEM/F-12 media containing advanced DMEM/F-12 (Invitrogen, cat. 12634028), 4.9% defined fetal bovine serum, heat inactivated (HyClone Laboratories Inc., Logan, UT, cat. SH30070.03HI), 389 ng/mL hydrocortisone (Sigma-Aldrich, cat. H4001), 9.7 ng/mL human EGF recombinant protein (Invitrogen, cat. PHG0313), 23.4 microg/mL adenine (Sigma-Aldrich, cat. A2786), 97.3 U/mL penicillin-streptomycin (Invitrogen, cat. 15140122), 1.9 mM L-glutamine (Invitrogen, cat. 25030081), and 9.7 microM Y-27632 dihydrochloride (Tocris Bioscience, Bristol, United Kingdom, cat. 1254). The PDCs were cultured in complete DMEM/F12 media without 9.7 microM Y-27632 dihydrochloride for at least two passages prior to the screen. The established cell line HOP-62 was cultured in RPMI 1640 medium, HEPES (Invitrogen, cat. 22400105) with 10% defined fetal bovine serum (HyClone Laboratories Inc., cat. SH30070.03) and 2 mM L-glutamine (Invitrogen, cat. 25030081). The pooled donor HUVEC were cultured in endothelial cell growth medium 2 (PromoCell, Heidelberg, Germany, cat. C-22011) and the hMSC were cultured in mesenchymal stem cell growth medium 2 (PromoCell, cat. C-28009). For all experiments, HUVEC and hMSC were used at passages </=5, while the malignant cell lines were used at passages </=15. […]
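Further: spheroids exposed to compounds for seven days before readout.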
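Wherever viability, T/C is given: 100% = DMSO vehicle control luminescence of the spheroids.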

COC(=O)c1ccc2c(C(=Nc3ccc(N(C)C(=O)CN4CCN(C)CC4)cc3)c3ccccc3)c(O)[nH]c2c1 + C=CC(=O)N1CCN(c2nc(=O)n(-c3c(C)ccnc3C(C)C)c3nc(-c4c(O)cccc4F)c(F)cc23)C(C)C1
IC50 (second compound 0.1 µM): > 10 µM
IC50 (second compound 0.316 µM): > 10 µM
IC50 (second compound 1 µM): > 10 µM
IC50 (second compound 3.16 µM): > 10 µM
IC50 (second compound 10 µM): > 10 µM
viability, T/C (second compound 0.1 µM, first compound 0.0316 µM): 91.1%
viability, T/C (second compound 0.1 µM, first compound 0.1 µM): 89.7%
viability, T/C (second compound 0.1 µM, first compound 0.316 µM): 92.3%
viability, T/C (second compound 0.1 µM, first compound 1 µM): 91.8%
viability, T/C (second compound 0.1 µM, first compound 3.16 µM): 83.5%
viability, T/C (second compound 0.1 µM, first compound 10 µM): 85%
viability, T/C (second compound 0.316 µM, first compound 0.0316 µM): 89%
viability, T/C (second compound 0.316 µM, first compound 0.1 µM): 99.9%
viability, T/C (second compound 0.316 µM, first compound 0.316 µM): 94%
viability, T/C (second compound 0.316 µM, first compound 1 µM): 89.9%
viability, T/C (second compound 0.316 µM, first compound 3.16 µM): 84.5%
viability, T/C (second compound 0.316 µM, first compound 10 µM): 85.5%
viability, T/C (second compound 1 µM, first compound 0.0316 µM): 90.6%
viability, T/C (second compound 1 µM, first compound 0.1 µM): 91.2%
viability, T/C (second compound 1 µM, first compound 0.316 µM): 84.9%
viability, T/C (second compound 1 µM, first compound 1 µM): 76.3%
viability, T/C (second compound 1 µM, first compound 3.16 µM): 77.3%
viability, T/C (second compound 1 µM, first compound 10 µM): 83.4%
viability, T/C (second compound 3.16 µM, first compound 0.0316 µM): 93%
viability, T/C (second compound 3.16 µM, first compound 0.1 µM): 101%
viability, T/C (second compound 3.16 µM, first compound 0.316 µM): 88.3%
viability, T/C (second compound 3.16 µM, first compound 1 µM): 88.7%
viability, T/C (second compound 3.16 µM, first compound 3.16 µM): 75%
viability, T/C (second compound 3.16 µM, first compound 10 µM): 85.7%
viability, T/C (second compound 10 µM, first compound 0.0316 µM): 95.6%
viability, T/C (second compound 10 µM, first compound 0.1 µM): 104%
viability, T/C (second compound 10 µM, first compound 0.316 µM): 93.5%
viability, T/C (second compound 10 µM, first compound 1 µM): 87.4%
viability, T/C (second compound 10 µM, first compound 3.16 µM): 77.5%
viability, T/C (second compound 10 µM, first compound 10 µM): 75.4%
